Results as given in publication PMC9381536, “Non-apoptotic cell death induction via sapogenin based supramolecular particles” (Scientific Reports, 2022).

Key:
[1] = Nile red staining (particle formation); assay type: physicochemical; conditions: Nile red, PBS, 3 h
Experimental: AG-08 and AG were dissolved in DMSO as a 1000-fold concentrated stock added into the filtered PBS, which contain 2.5 µM Nile red. After 3 h incubation at room temperature, the fluorescence intensity was measured with a microplate reader (550 nm for excitation and 635 nm for the emission wavelength) (Varioscan, Thermo Fisher Scientific, US).

HCC1937 cells = assay: Cytotoxicity of 220 nm filtrates; assay type: cell-based
Experimental: Figure 1 AG-08 mediated cytotoxicity relies on the supramolecular structures. (A) Structure of AG-08. (B) The scanning transmission electron micrograph of 16 µM AG-08 in PBS. Figure is a representative image of stained sample with uranyl acetate (5683 × magnification; scale bar 600 nm). (C) After 3 h incubation of Nile red solution with AG-08 or AG, fluorescence intensity of Nile red was measured. (D) AG-08, Staurosporine (Sta) or vehicle samples prepared in the cell condition medium was filtrated by 220 nm filter and HCC1937 cells were exposed to the filtrates. After 24 h, the viability of cells was measured and represented as a percentage of that of the vehicle control. The error bars represent mean value ± s.d. (n = 3). *p < 0.05, **p < 0.005, ***p < 0.001. (E) Tween 20 (1:40,000) was added to the fresh medium before addition of 8 μM AG-08 or vehicle. Then cell medium was replaced with this fresh medium. Cell viability was detected after 24 h incubation. […] TEXT PRINTED IN THE PICTURE: (F) no label printed: Diameter: 153.2±4.6; polydispersity index: 0.218
To verify that the activity of AG-08 arises from its supramolecular structures, freshly prepared AG-08 solutions were filtered using 220 nm-filters to remove AG-08 supramolecular particles from medium, and the filtrates were analyzed for their cytotoxicity. […] Next, Tween-20 was utilized as a non-ionic detergent to block particle formation, and AG-08-mediated cell death was inhibited as expected (Fig. 1E). […]

CHOP = CHOP expression (immunoblot, q-RTPCR); assay type: cell-based
From the text: Figure 3 mRNA microarray analysis was used to identify differentially expressed genes via AG-08 treatment. (A) Heatmap representing the expressions of 193 genes with significant different expression in AG-08 treated cells compared with control. Heatmap was generated by GraphPad Prism version 8 (https://www.graphpad.com/scientific-software/prism/). (B) Protein–protein network analysis was formed via STRING. The thickness of the connecting lines indicates the strength of data support for physical and/or functional associations. (C) Pathway enrichment was determined using GO, KEGG, and Reactome pathway analysis. […] Size of circle represents the significance of enrichment. (D) The protein levels of CHOP were determined via IB. 0.5 µg/ml tunicamycin (Tun) was used as positive control. The experiments were repeated three times independently; with one representative result shown. (E) mRNA level of the CHOP was investigated using quantitative PCR (q-RTPCR). Error bars represent standard error (s.e.). p-values were calculated with respect to vehicle-treated cells by one-way Anova test. (**p < 0.005, ****p < 0.0001). (F) The expression and localization of Calnexin protein were evaluated using immunofluorescence via anti-Calnexin antibody (scale bar 25 µm).
The total RNA was isolated using Total RNA Isolation Kit (Bio-Rad, US) following the manufacturer’s instructions. cDNAs were synthesized using The iScript cDNA synthesis kit (Bio-Rad, US) according to the manufacturer’s instructions. To gene expression analysis, specific primers were designed against CHOP (forward: […], reverse: […] ). Quantitative RT-PCR (qRT-PCR) was performed using The SYBR Green I Mastermix (Bio-Rad, US) and LightCycler480 thermocycler (Roche). […] For relative quantification, reaction efficiency incorporated ΔΔCq formula was used. […]
Cell lysates were prepared by RIPA buffer (1XPBS, 1% nonidet P-40, 0.5% sodium deoxycholate, and 0.1% SDS, pH 8.0). Protein concentrations were determined by bicinchoninic acid (BCA) protein assay (Thermo Fisher Scientific, US). […]

HCC1937 = assay: LDH (lactate dehydrogenase) releasing assay; assay type: cell-based, Human; conditions: LDH release and immunoblotting
Experimental: Figure 5 The cytotoxic activity of analogs depends on particle formation like AG-08. […] The level of released LDH was calculated as fold change relative to vehicle. […] After 24 h, cell viability was measured. […] Cell viability after 24 h was measured. The reported values correspond to mean values ± standard deviation (± s.d) of three experiments. ***p < 0.001, ****p < 0.0001.
LDH-Cytotoxicity Colorimetric Assay Kit II (Biovision) was used to detect LDH releasing. Briefly, HCC1937 were seeded on 96 well plate. After treatment with compounds, cells were centrifuged at 600×g for 10 min. 10 µl supernatant were transferred into clean 96 well plate and added into 100 µl LDH Reaction Mix. Following 30 min incubation at room temperature, 10 µl stop solution were added, and absorbance was measured at 450 nm (Varioscan, Thermo Fisher Scientific, US).

[2] = Cytotoxic activity after freeze–thaw cycle; assay type: cell-based; conditions: solution, no change in chemical structure

Question: Which results are given for `Cc1ccc(S(=O)(=O)OC2CCC3(C)C4=CCC5(C)C(C6(C)CCC(C(C)(C)O)O6)C(O)CC5(C)C4C=CC3C2(C)C)cc1` (stereo not shown) [AG-08]?
Answer: critical assembly concentration [1]: approximately 2 µM; cytotoxicity of filtrate after 220 nm filtration (HCC1937 cells): no longer exhibited any cytotoxicity; CHOP protein level (CHOP; 8 µM): enhanced; CHOP protein level (CHOP; 16 µM): decreased; CHOP (DDIT3) expression (CHOP; AG-08 treated cells): upregulated in a dose-dependent manner; mode of cell death (HCC1937): induced necrotic cell death; cytotoxic activity after one freeze–thaw cycle [2]: lost
